According to patent US20230159510A1, “NOVEL PRMT5 INHIBITORS” (AMGEN INC., priority 2020, published 2023):
Each block holds one molecule with its values, some of them ahead of it.

Legend:
HCT116 WT cells = assay: HCT116 proliferation assay, WT cells (CellTiter-Glo, 6 days); type: cell-based; settings: Homo sapiens, HCT-116, 144 h, read-out: Prolif_HCT116-WT IC50
Method in brief: (§1)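 Seed cells in RPMI 1640 supplemented with 10% FBS and incubate overnight at 37° C under 5% CO2. Treat with serially diluted compound (threefold steps, 8 or 9 points, highest 1 or 10 µM) or DMSO alone, then quantify viability by luminescence.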

HCT116 MTAP null cells = assay: HCT116 proliferation assay, MTAP null cells (CellTiter-Glo, 6 days); type: cell-based; settings: HCT116-MTAP null, 144 h, read-out: Protif_ HCT116-MTAP null IC50
Method in brief: as §1

Structure (SMILES): Cc1cc2cc(C(=O)N(Cc3ccc(C(F)(F)F)cn3)CC(C)C)c(O)cc2nc1N [Example 835, 2-Amino-7-hydroxy-3-methyl-N-(2-methylpropyl)-N-((5-(trifluoromethyl)-2-pyridinyl)methyl)-6-quinolinecarboxamide]
- IC50 (HCT116 WT cells): 8.01 µM
- IC50 (HCT116 MTAP null cells): 0.448 µM

Structure (SMILES): Cc1cc2cc(C(=O)N(Cc3ccc(C(F)(F)F)cn3)C(C)C3CCOCC3)ccc2nc1N (stereo not shown) [Example 675, 2-amino-3-methyl-N-(1-tetrahydropyran-4-ylethyl)-N-[[5-(trifluoromethyl)-2-pyridyl]methyl] quinoline-6-carboxamide]
- IC50 (HCT116 WT cells): > 1 µM
- IC50 (HCT116 MTAP null cells): 0.232 µM

Structure (SMILES): CCOc1ccc(CN(C(=O)c2ccc3nc(N)c(Br)cc3c2)[C@H](C)c2ncccn2)nn1 [Example 729, 2-amino-3-bromo-N-((6-ethoxy-3-pyridazinyl)methyl)-N-((1R)-1-(2-pyrimidinyl)ethyl)-6-quinolinecarboxamide]
- IC50 (HCT116 WT cells): 6.9 µM
- IC50 (HCT116 MTAP null cells): 0.114 µM

Structure (SMILES): CCc1csc(CN(Cc2ccc(C(F)(F)F)cn2)C(=O)c2ccc3nc(N)c(C)cc3c2)n1 [Example 586, 2-amino-N-((4-ethylthiazol-2-yl)methyl)-3-methyl-N-((5-(trifluoromethyl)pyridin-2-yl)methyl)quinoline-6-carboxamide]
- IC50 (HCT116 WT cells): 5.55 µM
- IC50 (HCT116 MTAP null cells): 0.344 µM

Structure (SMILES): Cc1cc2cc(C(=O)N(Cc3ccc(C(F)(F)F)cn3)C(C)c3cccc(C#N)n3)ccc2nc1N (stereo not shown) [Example 806, 2-amino-N-(1-(6-cyanopyridin-2-yl)ethyl)-3-methyl-N-((5-(trifluoromethyl)pyridin-2-yl)methyl) quinoline-6-carboxamide]
- IC50 (HCT116 WT cells): 6.8 µM
- IC50 (HCT116 MTAP null cells): 0.552 µM

Structure (SMILES): COc1ccc(CN(C(=O)c2ccc3nc(N)c(C)cc3c2)C(C)c2ncn(C)n2)nn1 (stereo not shown) [Example 756, 2-amino-N-((6-methoxypyridazin-3-yl)methyl)-3-methyl-N-(1-(1-methyl-1H-1,2,4-triazol-3-yl)ethyl)quinoline-6-carboxamide]
- IC50 (HCT116 WT cells): 5.95 µM
- IC50 (HCT116 MTAP null cells): 0.228 µM

Structure (SMILES): N#CC[C@@H](C1CC1)N(Cc1ccc(C#N)cn1)C(=O)c1ccc2nc(N)c(Br)cc2c1 [Example 776, (S)-2-amino-3-bromo-N-(2-cyano-1-cyclopropylethyl)-N-((5-cyanopyridin-2-yl)methyl)quinoline-6-carboxamide]
- IC50 (HCT116 WT cells): 7.23 µM
- IC50 (HCT116 MTAP null cells): 0.195 µM

Structure (SMILES): Cc1cc2cc(C(=O)N(CCOC(F)(F)F)Cc3ccc(C(F)(F)F)cn3)ccc2nc1N [Example 734, 2-amino-3-methyl-N-(2-(trifluoromethoxy)ethyl)-N-((5-(trifluoromethyl)-2-pyridinyl)methyl)-6-quinolinecarboxamide]
- IC50 (HCT116 WT cells): > 10 µM
- IC50 (HCT116 MTAP null cells): 0.994 µM

Structure (SMILES): Cc1cc2cc(C(=O)N(Cc3cc4c(cn3)OCCC4)C(C)c3ncccn3)ccc2nc1N (stereo not shown) [Example 741, 2-amino-N-((3,4-dihydro-2H-pyrano[2,3-c]pyridin-6-yl)methyl)-3-methyl-N-(1-(pyrimidin-2-yl)ethyl)quinoline-6-carboxamide]
- IC50 (HCT116 WT cells): 8.36 µM
- IC50 (HCT116 MTAP null cells): 0.27 µM

Structure (SMILES): Cc1cc2cc(C(=O)N(Cc3ccc(C(F)(F)F)cn3)CC(O)C(F)(F)F)ccc2nc1N (stereo not shown) [Example 592, 2-amino-3-methyl-N-(3,3,3-trifluoro-2-hydroxypropyl)-N-((5-(trifluoromethyl)pyridin-2-yl)methyl)quinoline-6-carboxamide]
- IC50 (HCT116 WT cells): > 1 µM
- IC50 (HCT116 MTAP null cells): 0.407 µM

Structure (SMILES): Cc1cc2cc(C(=O)N(Cc3ccc(C(F)(F)F)cn3)[C@@H]3CCOC[C@H]3O)ccc2nc1N (single isomer, unassigned) [Example 815]
- IC50 (HCT116 WT cells): 5.15 µM
- IC50 (HCT116 MTAP null cells): 0.25 µM

Structure (SMILES): C[C@H](c1ncccn1)N(Cc1ccc(Cl)nn1)C(=O)c1ccc2nc(N)c(Br)cc2c1 [Example 773, (R)-2-amino-3-bromo-N-((6-chloropyridazin-3-yl)methyl)-N-(1-(pyrimidin-2-yl)ethyl)quinoline-6-carboxamide]
- IC50 (HCT116 WT cells): > 10 µM
- IC50 (HCT116 MTAP null cells): 0.304 µM

Structure (SMILES): C[C@H](c1ncccc1F)N(Cc1ccc(C(F)(F)F)nn1)C(=O)c1ccc2nc(N)c(Br)cc2c1 [Example 737, 2-amino-3-bromo-N-((1R)-1-(3-fluoro-2-pyridinyl)ethyl)-N-((6-(trifluoromethyl)-3-pyridazinyl)methyl)-6-quinolinecarboxamide]
- IC50 (HCT116 WT cells): 6.8 µM
- IC50 (HCT116 MTAP null cells): 0.148 µM

Further molecules by falling IC50 (HCT116 WT cells), results first:

- IC50 (HCT116 WT cells): 4.3 µM
- IC50 (HCT116 MTAP null cells): 0.173 µM
Structure (SMILES): N#Cc1ccc(CN(C(=O)c2ccc3nc(N)c(Br)cc3c2)[C@@H](c2ncccn2)C2CC2)nc1 [Example 738, 2-amino-3-bromo-N-((5-cyano-2-pyridinyl)methyl)-N-((R)-cyclopropyl(2-pyrimidinyl)methyl)-6-quinolinecarboxamide]

- IC50 (HCT116 WT cells): 3.96 µM
- IC50 (HCT116 MTAP null cells): 0.116 µM
Structure (SMILES): C[C@H](c1ncccn1)N(Cc1ccc(Cl)cn1)C(=O)c1cnc2nc(N)c(I)cc2c1 [Example 768, (R)-7-amino-N-((5-chloropyridin-2-yl)methyl)-6-iodo-N-(1-(pyrimidin-2-yl)ethyl)-1,8-naphthyridine-3-carboxamide]

- IC50 (HCT116 WT cells): 3.19 µM
- IC50 (HCT116 MTAP null cells): 0.523 µM
Structure (SMILES): CC(C)CN(Cc1ccc(C(F)(F)F)cn1)C(=O)c1ccc2nc(N)c(-c3ccccc3)cc2c1 [Example 834, 2-Amino-N-(2-methylpropyl)-3-phenyl-N-((5-(trifluoromethyl)-2-pyridinyl)methyl)-6-quinolinecarboxamide]

- IC50 (HCT116 WT cells): 2.79 µM
- IC50 (HCT116 MTAP null cells): 0.173 µM
Structure (SMILES): C[C@H](c1cccc(F)n1)N(Cc1ccc(C(F)(F)F)cn1)C(=O)c1cnc2nc(N)c(Br)cc2c1 [Example 800, (R)-7-amino-6-bromo-N-(1-(6-fluoropyridin-2-yl)ethyl)-N-((5-(trifluoromethyl)pyridin-2-yl)methyl)-1,8-naphthyridine-3-carboxamide]

- IC50 (HCT116 WT cells): 2.08 µM
- IC50 (HCT116 MTAP null cells): 0.096 µM
Structure (SMILES): CC[C@H](c1ncccn1)N(Cc1ccc(C(F)(F)F)cn1)C(=O)c1cnc2nc(N)c(Br)cc2c1 (single isomer, unassigned) [Example 443]

- IC50 (HCT116 WT cells): 2 µM
- IC50 (HCT116 MTAP null cells): 0.144 µM
Structure (SMILES): Cc1cc2cc(C(=O)N(Cc3ccc(C(F)(F)F)cn3)C(c3ncccn3)C(C)C)ccc2nc1N (stereo not shown) [Example 805, 2-amino-3-methyl-N-(2-methyl-1-(pyrimidin-2-yl)propyl)-N-((5-(trifluoromethyl)pyridin-2-yl)methyl)quinoline-6-carboxamide]

- IC50 (HCT116 WT cells): 1.68 µM
- IC50 (HCT116 MTAP null cells): 0.05 µM
Structure (SMILES): COc1ccc(CN(C(=O)c2ccc3nc(N)c(C)cc3c2)[C@@H](c2ncccn2)C2CC2)nn1 (single isomer, unassigned) [Example 775]

- IC50 (HCT116 WT cells): 0.695 µM
- IC50 (HCT116 MTAP null cells): 0.041 µM
Structure (SMILES): Cc1cc2cc(C(=O)N(Cc3ccc(N4CCOCC4)nn3)[C@H](C)c3ncccc3F)ccc2nc1N [Example 823, 2-Amino-N-((1R)-1-(3-fluoro-2-pyridinyl)ethyl)-3-methyl-N-((6-(4-morpholinyl)-3-pyridazinyl)methyl)-6-quinolinecarboxamide]

- IC50 (HCT116 WT cells): 0.694 µM
- IC50 (HCT116 MTAP null cells): 0.054 µM
Structure (SMILES): Cc1c(Br)c(N)nc2ncc(C(=O)N(Cc3ccc(C(F)(F)F)cn3)[C@H](C)c3ncccn3)cc12 [Example 743, (R)-7-amino-6-bromo-5-methyl-N-(1-(pyrimidin-2-yl)ethyl)-N-((5-(trifluoromethyl)pyridin-2-yl)methyl)-1,8-naphthyridine-3-carboxamide]

- IC50 (HCT116 WT cells): 0.543 µM
- IC50 (HCT116 MTAP null cells): 0.029 µM
Structure (SMILES): Cc1cc2cc(C(=O)N(Cc3ccc(Cl)nn3)[C@H](C)c3ncccn3)ccc2nc1N (single isomer, unassigned) [Example 819]
